Measurements as given in patent EP4772503A1, “LIPOIC ACID DERIVATIVE, VESICLE COMPOUND AND PREPARATION THEREFOR AND USE THEREOF” (Neuboron Medtech Research Institute Ltd., priority 2023, dated 2025).

How the values were obtained:
[1] = DLS detection of grain size, PDI and zeta potential of vesicles; assay type: physicochemical; conditions: for PDI / d(nm) / zeta potential (mV): vesicles of the derivative, depolymerization and assembly repeated three times; for grain size of the vesicles: vesicles assembled once, pH below 7.2, FIG. 5
Procedure: • ① In this test example, the grain sizes of vesicle compounds formed by three compounds, LA-PEG2-BPA, LA-PEG4-BPA, and LA-PEG4-3-BPA, were detected.
Preparation of the vesicle nanoparticles to be detected for grain size in this test example includes: An appropriate amount of the corresponding compound was weighed and placed into a sample vial, double-distilled water was added, an appropriate amount of NaOH aqueous solution was added to adjust the pH to between 10 and 11 until the starting material was completely dissolved, followed by addition of an appropriate amount of hydrochloric acid to adjust the pH to below 7.2, thereby completing vesicle assembly.
② The lipoic acid derivatives were separately assembled into vesicles, including LA-PEG1-BPA (denoted as L^pB-1), LA-PEG2-BPA (denoted as L^pB-2), LA-PEG4-BPA (denoted as L^pB-3), LA-PEG8-BPA (denoted as L^pB-4), LA-PEG1-3-BPA (denoted as L^mB-1), LA-PEG2-3-BPA (denoted as L^mB-2), LA-PEG4-3-BPA (denoted as L^mB-3), and LA-PEG8-3-BPA (denoted as L^mB-4); the vesicle assembly method in this test example was based on the preparation method of the vesicle examples and depolymerization and assembly were repeatedly three times; the physicochemical properties of the self-assembled vesicles were detected, and the grain size, polymer dispersancy index (PDI), and zeta potential of the vesicles were detected using DLS (dynamic light scattering) technology. Table 1 […]

[2] = Critical aggregation concentration by Nile Red fluorescence; assay type: physicochemical; conditions: Nile Red 1.0 µM, distilled water
Procedure: A mixture of Nile Red (at a concentration of 1.0 µM) and the corresponding BPA lipoic acid derivative (at a concentration of 0-20 mM) in distilled water was oscillated overnight under constant temperature conditions. The fluorescence emission intensity of Nile Red at 525 nm wavelength (λex = 485 nm) was measured using a FluoroMax-4 fluorometer. The critical aggregation concentration of the BPA lipoic acid derivative in aqueous medium was calculated from the intersection point of two linear regression equations.
The critical aggregation concentration (CAC) refers to the minimum concentration at which a substance forms aggregates in an aqueous solution. When the concentration of a surfactant or colloidal particle in an aqueous solution exceeds the critical aggregation concentration, they begin to self-assemble into aggregates due to intermolecular attractive forces. This process is referred to as aggregation or self-assembly.

SMILES	PDI [1]	d(nm) [1] [nm]	zeta potential (mV) [1] [mV]	CAC [2] [µM]	grain size of the vesicles [1]
O=C(CCCCC1CCSS1)NCCOCCC(=O)NC(Cc1cccc(B(O)O)c1)C(=O)O (stereo not drawn) [L^mB-1]	0.132	105.3	-30.7	256	
O=C(CCCCC1CCSS1)NCCOCCOCCC(=O)NC(Cc1cccc(B(O)O)c1)C(=O)O (stereo not drawn) [L^mB-2]	0.102	149.1	-28.61	254	
O=C(CCCCC1CCSS1)NCCOCCOCCOCCOCCC(=O)NC(Cc1cccc(B(O)O)c1)C(=O)O (stereo not drawn) [L^mB-3]	0.209	165.7	-35.20	274	approximately 114 nm
O=C(CCCCC1CCSS1)NCCOCCOCCOCCOCCOCCOCCOCCOCCC(=O)NC(Cc1cccc(B(O)O)c1)C(=O)O (stereo not drawn) [L^mB-4]	0.237	284.6	-35.2	280	
O=C(CCCCC1CCSS1)NCCOCCOCCOCCOCCOCCOCCOCCOCCC(=O)NC(Cc1ccc(B(O)O)cc1)C(=O)O (stereo not drawn) [L^pB-4]	0.217	268.4	-29.35	277	

Second part, the molecule after the results:

PDI [1]	d(nm) [1] [nm]	zeta potential (mV) [1] [mV]	CAC [2] [µM]	grain size of the vesicles [1]	SMILES
0.107	98.9	-32.5	243		O=C(CCCCC1CCSS1)NCCOCCC(=O)NC(Cc1ccc(B(O)O)cc1)C(=O)O (stereo not drawn) [L^pB-1]
0.015	144.7	-30.9	248	approximately 244 nm	O=C(CCCCC1CCSS1)NCCOCCOCCC(=O)NC(Cc1ccc(B(O)O)cc1)C(=O)O (stereo not drawn) [L^pB-2]
